Results reported in patent US5147876A, “2,6-di,2,4,6-, 2,5,6-tri and 2,4,5,6-tetra-substituted pyrimidines, their pharmaceutically acceptable salts, pharmaceutical compositions containing same and their use in the treatment of neurological diseases” (Mitsui Petrochemical Industries, Ltd., priority 1988, dated 1992).

System: neuro-2a (mouse neuroblastoma cells)
Experiment: Action on neuro-2a: proportion of cells containing outgrown neurites
Type: cell-based
Conditions: mean ± S.D.
Experimental: The effects of the compounds of this invention on neuroblastoma cells were examined by the following method.
Mouse neuro 2a cells in the logarithmic growth period in the Dulbecco's modified Eagle's medium DMEM, containing 100 units/ml of penicillin G sodium and 100 micrograms/ml of streptomycin sulfate]containing 10 % of FCS were seeded in a 48-well plate so that the number of cells was 1,000 cells/well, and cultured for one day in 0.25 ml of the culture fluid in each well in an incubator containing 5 % of carbon dioxide gas in air at 37° C. Then, a 4 % aqueous glutaraldehyde solution in the same amount as a medium (0.25 ml) was added, and the culture fluid was left to stand at room temperature for 2 hours to fix the cells. After washing with water, a 0.05 % aqueous solution of methylene blue was added to stain the cells Under a microscope, the number of cells containing outgrown neurites (cells having at least one neurite with a length of at least two times as large as the long diameter of the cell) was counted visually, and the proportion of these cells in the entire cells was calculated. The well was observed over 5 or more visual fields (at least 2 % of the entire surface area of the well) continuous to the left and right from a mark put at the center of the well, and more than 200 cells was counted. One drug compound was used in 6 different concentrations at most, and three runs were conducted for each concentrations.

Row | Compound | Number of cells having neurites with a length at least two times the diameter of each cell/total number of cells (0.03 mM) [%] | Number of cells having neurites with a length at least two times the diameter of each cell/total number of cells (0.1 mM) [%] | Number of cells having neurites with a length at least two times the diameter of each cell/total number of cells (0.01 mM) [%] | Number of cells having neurites with a length at least two times the diameter of each cell/total number of cells (0.3 mM) [%]
1 | CNc1nccc(N2CCc3ccccc3C2)n1 [Compound 1130] | 1.8 ± 0.5 | 2.0 ± 0.3 |  | 
2 | CN(C(=O)c1ccccc1)c1ccnc(N2CCC(NC(=O)c3ccccc3)CC2)n1 [Compound 2174] |  |  | 2.5 ± 1.0 | 
3 | CNc1nc(N2CCC(c3ccccc3)CC2)ncc1C [Compound 1098] | 10.2 ± 0.9 | 5.7 ± 2.0 | 5.3 ± 1.4 | 
4 | CN(C(=O)c1ccccc1)c1ccnc(N2CCC(C(=O)c3ccccc3)CC2)n1 [Compound 306] | 7.7 ± 0.5 | 2.8 ± 0.8 |  | 
5 | Cc1ccc(C(c2ccccc2)N2CCN(c3ncc4c(n3)N(C)C(=O)C4)CC2)cc1.Cc1ccc(S(=O)(=O)O)cc1 (stereo not drawn) [Compound 3152, 2-(4-(α(4-methylphenyl)benzyl)piperazino)-5,6-dihydro-7-methyl-6-oxo(7H)pyrrolo[2,3-d)pyrimidine p-toluenesulfonate] | 11.4 ± 3.1 | 6.8 ± 4.2 |  | 
6 | CNc1nc(C)cc(N2CCCCC2)n1 [Compound 1110] | 4.4 ± 0.3 | 6.3 ± 4.4 | 3.4 ± 1.1 | 16.5 ± 2.1
7 | CN(C(=O)c1ccccc1)c1ccnc(N2CCC(OC(=O)c3ccccc3)CC2)n1 [Compound 2226] | 6.4 ± 3.3 | 15.4 ± 3.9 |  | 
8 | CN(C(=O)c1ccccc1)c1nccc(N2CCC(C(C)(C)C)CC2)n1 [Compound 620] | 4.0 ± 1.3 |  | 4.7 ± 0.4 | 
9 | CN(C(=O)c1ccccc1)c1ccnc(N2CCC(N(C)C)CC2)n1 [Compound 2148] | 4.5 ± 1.3 | 4.2 ± 1.2 |  | 
10 | CCCCNC1CCN(c2nccc(N(C)C(=O)c3ccccc3)n2)CC1 [Compound 2260] | 2.2 ± 0.3 | 2.3 ± 0.5 |  | 
11 | CCN(C(=O)c1ccccc1)c1nccc(N2CCC(c3ccccc3)CC2)n1 [Compound 636] | 12.1 ± 3.4 | 8.9 ± 5.2 |  | 
12 | CN(C(=O)c1ccc(NC(=O)c2ccccc2)cc1)c1ccnc(N2CCC(c3ccccc3)CC2)n1 [Compound 2194] |  | 9.5 ± 3.5 |  | 7.6 ± 2.8
13 | CC(C)N(C(=O)c1ccccc1)c1nccc(N2CCC(c3ccccc3)CC2)n1 [Compound 652] | 6.1 ± 0.6 | 12.5 ± 2.8 |  | 
14 | CN(C(=O)c1ccccc1)c1ccnc(NC2CCNCC2)n1 [Compound 2188] |  | 2.4 ± 0.9 |  | 3.8 ± 1.1
15 | CNc1nccc(N2CCC(c3ccccc3)CC2)n1 [Compound 1122] | 10.2 ± 3.8 |  | 4.2 ± 2.1 | 
16 | CC(C)N(Cc1ccccc1)c1nccc(N(C)C(=O)c2ccccc2)n1 [Compound 662] |  | 3.1 ± 1.6 |  | 2.6 ± 0.9
17 | CN(C(=O)COc1ccccc1)c1ccnc(N2CCC(c3ccccc3)CC2)n1 [Compound 2286] | 9.7 ± 5.4 | 8.4 ± 0.8 |  | 
18 | CN1C(=O)Cc2cnc(N3CCN(S(C)(=O)=O)CC3)nc21 [Compound 3404] | 3.3 ± 1.3 |  |  | 3.4 ± 1.4
